Patent US9745324B2, “Iminothiadiazepane dioxide compounds as BACE inhibitors, compositions, and their use” (Merck Sharp & Dohme Corp., priority 2013, dated 2017)
Read-outs that look alike come from different tables or passages of the source.

Tests used:
[1] = target: soluble human BACE1 catalytic domain (Homo sapiens (Human), UniProt P56817); test: BACE1 HTRF FRET Assay; assay type: biochemical; details: Ki calculated from IC50 using the Cheng-Prusoff equation; QSY7-APPswe-Eu substrate, pH 5.0
Text: Reagents: Na^+-Acetate pH 5.0; 1% Brij-35; Glycerol; Dimethyl Sulfoxide (DMSO); Recombinant human soluble BACE1 catalytic domain (>95% pure); APP Swedish mutant peptide substrate (QSY7-APP^swe-Eu): QSY7-[…]-Europium-amide (SEQ ID 1).
A homogeneous time-resolved FRET assay can be used to determine IC50 values for inhibitors of the soluble human BACE1 catalytic domain. This assay monitors the increase of 620 nm fluorescence that resulted from BACE1 cleavage of an APPswedish APP^swe mutant peptide FRET substrate (QSY7-[…]-Europium-amide (SEQ ID 1)). This substrate contains an N-terminal QSY7 moiety that serves as a quencher of the C-terminal Europium fluorophore (620 nm Em). […] Inhibition of BACE1 cleavage of the QSY7-APP^swe-Eu substrate by inhibitors is manifested as a suppression of 620 nm fluorescence.
Varying concentrations of inhibitors at 3× the final desired concentration in a volume of 10 ul are preincubated with purified human BACE1 catalytic domain (3 nM in 10 μl) for 30 minutes at 30° C. in reaction buffer containing 20 mM Na-Acetate pH 5.0, 10% glycerol, 0.1% Brij-35 and 7.5% DSMO. Reactions are initiated by addition of 10 μl of 600 nM QSY7-APP^swe-Eu substrate (200 nM final) to give a final reaction volume of 30 μl in a 384 well Nunc HTRF plate. The reactions are incubated at 30° C. for 1.5 hours. The 620 nm fluorescence is then read on a Rubystar HTRF plate reader (BMG Labtechnologies) using a 50 millisecond delay followed by a 400 millisecond acquisition time window. Inhibitor IC50 values are derived from non-linear regression analysis of concentration response curves.

[2] = target: purified human autoBACE-2 (Homo sapiens, UniProt Q9Y5Z0); test: BACE-2 Assay (BACE-HTRF assay); assay type: biochemical; details: Ki calculated from IC50 using the Cheng-Prusoff equation, pH 5.0, read-out: BACE2 Ki
purified human autoBACE-2, sequence (Q9Y5Z0 63-518 limits assumed): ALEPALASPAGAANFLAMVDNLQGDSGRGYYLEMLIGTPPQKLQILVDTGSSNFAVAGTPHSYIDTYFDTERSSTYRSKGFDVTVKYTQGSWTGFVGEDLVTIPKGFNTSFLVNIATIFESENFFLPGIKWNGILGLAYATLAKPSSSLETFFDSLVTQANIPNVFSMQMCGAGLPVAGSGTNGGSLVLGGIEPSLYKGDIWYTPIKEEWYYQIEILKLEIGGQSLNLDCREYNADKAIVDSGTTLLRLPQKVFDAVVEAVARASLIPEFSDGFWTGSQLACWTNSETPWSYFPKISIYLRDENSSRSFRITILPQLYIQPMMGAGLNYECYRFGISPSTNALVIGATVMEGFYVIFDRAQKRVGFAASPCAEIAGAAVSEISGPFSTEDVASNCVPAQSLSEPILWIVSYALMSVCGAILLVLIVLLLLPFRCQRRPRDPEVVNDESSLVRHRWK
Method: DMSO is present at 5% final concentration in the assay. Following laser excitation of sample wells at 320 nm, the fluorescence signal at 620 nm is collected for 400 ms following a 50 μs delay on a RUBYstar HTRF plate reader (BMG Labtechnologies). Raw RFU data is normalized to maximum (1.0 nM BACE/DMSO) and minimum (no enzyme/DMSO) RFU values. […] The Ki values are calculated from the IC50 using the Cheng-Prusoff equation.

[3] = QSY7-EISEVNLDAEFC-Eu-amide substrate

soluble human BACE1 catalytic domain, sequence (P56817 75-416): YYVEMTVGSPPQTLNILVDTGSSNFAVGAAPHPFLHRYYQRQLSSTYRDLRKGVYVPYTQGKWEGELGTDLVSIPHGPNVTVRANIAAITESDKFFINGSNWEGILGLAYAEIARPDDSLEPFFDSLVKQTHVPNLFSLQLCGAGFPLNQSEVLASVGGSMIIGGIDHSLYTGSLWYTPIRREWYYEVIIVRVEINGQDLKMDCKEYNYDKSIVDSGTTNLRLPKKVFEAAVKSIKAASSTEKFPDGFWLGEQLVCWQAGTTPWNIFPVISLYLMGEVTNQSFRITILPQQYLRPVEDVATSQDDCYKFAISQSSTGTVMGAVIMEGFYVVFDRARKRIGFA

Ki [1] | Ki [2, 3] | SMILES | Ki ([2]; QSY7-[…]-Eu-amide substrate)
5930 nM | 917 nM | CC(=O)Nc1ccc(F)c([C@]2(C)CN(C)S(=O)(=O)C(C)(C)C(=N)N2)c1 [Example 35, N-{4-fluoro-3-[(4R)-6-imino-2,4,7,7-tetramethyl-1,1-dioxido-1,2,5-thiadiazepan-4-yl]phenyl}acetamide] | 
4350 nM | 1030 nM | CN1C[C@@](C)(c2cc(NC(=O)C3CC3)ccc2F)NC(=N)C(C)(C)S1(=O)=O [Example 33, N-{4-fluoro-3-[(4R)-6-imino-2,4,7,7-tetramethyl-1,1-dioxido-1,2,5-thiadiazepan-4-yl]phenyl}cyclopropanecarboxamide] | 
64 nM | 25 nM | CN1C[C@@](C)(c2cc(NC(=O)c3cnsn3)ccc2F)NC(=N)C(C)(C)S1(=O)=O [Example 16, N-{4-fluoro-3-[(4R)-6-imino-2,4,7,7-tetramethyl-1,1-dioxido-1,2,5-thiadiazepan-4-yl]phenyl}-1,2,5-thiadiazole-3-carboxamide] | 
> 9760 nM | 2190 nM | CN1C[C@@](C)(c2cc(NC(=O)CC3CC3)ccc2F)NC(=N)C(C)(C)S1(=O)=O [Example 30, 2-cyclopropyl-N-{4-fluoro-3-[(4R)-6-imino-2,4,7,7-tetramethyl-1,1-dioxido-1,2,5-thiadiazepan-4-yl]phenyl}acetamide] | 
189 nM | 202 nM | CN1C[C@@](C)(c2cc(NC(=O)c3ncc(C(F)(F)F)cn3)ccc2F)NC(=N)C(C)(C)S1(=O)=O [Example 31, N-{4-fluoro-3-[(4R)-6-imino-2,4,7,7-tetramethyl-1,1-dioxido-1,2,5-thiadiazepan-4-yl]phenyl}-5-(trifluoromethyl)pyrimidine-2-carboxamide] | 
21 nM | 6.4 nM | CN1C[C@@](C)(c2cc(NC(=O)c3ncc(Cl)cc3F)ccc2F)NC(=N)C(C)(C)S1(=O)=O [Example 23, 5-chloro-3-fluoro-N-{4-fluoro-3-[(4R)-6-imino-2,4,7,7-tetramethyl-1,1-dioxido-1,2,5-thiadiazepan-4-yl]phenyl}pyridine-2-carboxamide] | 
32 nM | 144 nM | CN1C[C@@](C)(c2cc(NC(=O)c3ccc(OC(F)F)cn3)ccc2F)NC(=N)C(C)(C)S1(=O)=O [Example 4, 5-(difluoromethoxy)-N-{4-fluoro-3-[(4R)-6-imino-2,4,7,7-tetramethyl-1,1-dioxido-1,2,5-thiadiazepan-4-yl]phenyl}pyridine-2-carboxamide] | 
4680 nM | 798 nM | CO[C@H](C)C(=O)Nc1ccc(F)c([C@]2(C)CN(C)S(=O)(=O)C(C)(C)C(=N)N2)c1 [Example 29, (2R)-N-{4-fluoro-3-[(4R)-6-imino-2,4,7,7-tetramethyl-1,1-dioxido-1,2,5-thiadiazepan-4-yl]phenyl}-2-methoxypropanamide] | 
24 nM | 28 nM | Cc1cc(C#N)cnc1C(=O)Nc1ccc(F)c([C@]2(C)CN(C)S(=O)(=O)C(C)(C)C(=N)N2)c1 [Example 11, 5-cyano-N-{4-fluoro-3-[(4R)-6-imino-2,4,7,7-tetramethyl-1,1-dioxido-1,2,5-thiadiazepan-4-yl]phenyl}-3-methylpyridine-2-carboxamide] | 
165 nM | 54 nM | Cc1nc(C(=O)Nc2ccc(F)c([C@]3(C)CN(C)S(=O)(=O)C(C)(C)C(=N)N3)c2)c(C)o1 [Example 32, N-{4-fluoro-3-[(4R)-6-imino-2,4,7,7-tetramethyl-1,1-dioxido-1,2,5-thiadiazepan-4-yl]phenyl}-2,5-dimethyl-1,3-oxazole-4-carboxamide] | 
37 nM | 46 nM | CN1C[C@@](C)(c2cc(NC(=O)c3ccc(OCF)cn3)ccc2F)NC(=N)C(C)(C)S1(=O)=O [Example 38, N-{4-fluoro-3-[(4R)-6-imino-2,4,7,7-tetramethyl-1,1-dioxido-1,2,5-thiadiazepan-4-yl]phenyl}-5-(fluoromethoxy)pyridine-2-carboxamide] | 
> 9760 nM | 4090 nM | COCCC(=O)Nc1ccc(F)c([C@]2(C)CN(C)S(=O)(=O)C(C)(C)C(=N)N2)c1 [Example 24, N-{4-fluoro-3-[(4R)-6-imino-2,4,7,7-tetramethyl-1,1-dioxido-1,2,5-thiadiazepan-4-yl]phenyl}-3-methoxypropanamide] | 
285 nM | 46 nM | CN1C[C@@](C)(c2cc(NC(=O)c3cn4ccsc4n3)ccc2F)NC(=N)C(C)(C)S1(=O)=O [Example 27, N-{4-fluoro-3-[(4R)-6-imino-2,4,7,7-tetramethyl-1,1-dioxido-1,2,5-thiadiazepan-4-yl]phenyl}imidazo[2,1-b][1,3]thiazole-6-carboxamide] | 
5630 nM | 7490 nM | CN1C[C@@](C)(c2cc(NC(=O)c3cn4ccc(C#N)cc4n3)ccc2F)NC(=N)C(C)(C)S1(=O)=O [Example 17, 7-cyano-N-{4-fluoro-3-[(4R)-6-imino-2,4,7,7-tetramethyl-1,1-dioxido-1,2,5-thiadiazepan-4-yl]phenyl}imidazo[1,2-a]pyridine-2-carboxamide] | 
1360 nM | 347 nM | Cc1cc(C(=O)Nc2ccc(F)c([C@]3(C)CN(C)S(=O)(=O)C(C)(C)C(=N)N3)c2)no1 [Example 19, N-{4-fluoro-3-[(4R)-6-imino-2,4,7,7-tetramethyl-1,1-dioxido-1,2,5-thiadiazepan-4-yl]phenyl}-5-methylisoxazole-3-carboxamide] | 
52 nM | 217 nM | CN1C[C@@](C)(c2cc(NC(=O)c3cnc(OCCF)cn3)ccc2F)NC(=N)C(C)(C)S1(=O)=O [Example 14, 5-(2-fluoroethoxy)-N-{4-fluoro-3-[(4R)-6-imino-2,4,7,7-tetramethyl-1,1-dioxido-1,2,5-thiadiazepan-4-y]phenyl}pyrazine-2-carboxamide] | 
59 nM | 115 nM | CN1C[C@@](C)(c2cc(NC(=O)c3ccc(C(F)(F)F)cn3)ccc2F)NC(=N)C(C)(C)S1(=O)=O [Example 5, N-{4-fluoro-3-[(4R)-6-imino-2,4,7,7-tetramethyl-1,1-dioxido-1,2,5--thiadiazepan-4-yl]phenyl}-5-(trifluoromethyl)pyridine-2-carboxamide] | 
1200 nM | 354 nM | CN1C[C@@](C)(c2cc(NC(=O)C(F)F)ccc2F)NC(=N)C(C)(C)S1(=O)=O [Example 28, 2,2-difluoro-N-{4-fluoro-3-[(4R)-6-imino-2,4,7,7-tetramethyl-1,1-dioxido-1,2,5-thiadiazepan-4-yl]phenyl}acetamide] | 
37 nM | 102 nM | COc1cnc(C(=O)Nc2ccc(F)c([C@]3(C)CN(C)S(=O)(=O)C(C)(C)C(=N)N3)c2)cn1 [Example 1, N-{4-fluoro-3-[(4R)-6-imino-2,4,7,7-tetramethyl-1,1-dioxido-1,2,5-thiadiazepan-4-yl]phenyl}-5-methoxypyrazine-2-carboxamide] | 
62 nM | 59 nM | COc1cnc(C(=O)Nc2ccc(F)c([C@]3(C)CN(C)S(=O)(=O)C(C)(C)C(=N)N3)c2)c(C)n1 [Example 10, N-{4-fluoro-3-[(4R)-6-imino-2,4,7,7-tetramethyl-1,1-dioxido-1,2,5-thiadiazepan-4-yl]phenyl}-5-methoxy-3-methylpyrazine-2-carboxamide] | 

SMILES | Ki [1] | Ki [2, 3] | Ki ([2]; QSY7-[…]-Eu-amide substrate)
CN1C[C@@](C)(c2cc(Nc3nccc4cc(Br)cnc34)ccc2F)NC(=N)C(C)(C)S1(=O)=O [Example 42, (R)-4-(5-((3-bromo-1,7-naphthyridin-8-yl)amino)-2-fluorophenyl)-6-imino-2,4,7,7-tetramethyl-1,2,5-thiadiazepane 1,1-dioxide] | 18 nM |  | 9 nM
CN1C[C@@](C)(c2cc(OCc3ccc(C#N)cc3)ccc2F)NC(=N)C(C)(C)S1(=O)=O [Example 40, (R)-4-((4-fluoro-3-(6-imino-2,4,7,7-tetramethyl-1,1-dioxido-1,2,5-thiadiazepan-4-yl)phenoxy)methyl)benzonitrile] | 651 nM |  | 4050 nM
COc1cnc2c(Nc3ccc(F)c([C@]4(C)CN(C)S(=O)(=O)C(C)(C)C(=N)N4)c3)nccc2c1 [Example 43, (R)-4-(2-fluoro-5-((3-methoxy-1,7-naphthyridin-8-yl)amino)phenyl)-6-imino-2,4,7,7-tetramethyl-1,2,5-thiadiazepane 1,1-dioxide] | 209 nM |  | 240 nM
